Assay results published in paper PMC4580724 (Clinical Pharmacokinetics, 2015).
Values joined by “and” are separate entries in the source; they are usually repeats but may differ in a detail not shown here. Equal values may be shown once. Read-outs that look alike come from different tables or passages of the source.

Legend:
[1] = type: in vivo, human; conditions: for AUC∞ geometric mean ratio test/reference (90 % CI) / C max geometric mean ratio test/reference (90 % CI): substrate + enzalutamide 160 mg/day vs substrate + placebo-to-match, n = 14
CYP2B6 = conditions: human hepatic microsomes; cited from earlier work
[2] = cited from earlier work
CYP2C19 = conditions: human hepatic microsomes; cited from earlier work
CYP2C8 = target: T1, CYP2C8 (Homo sapiens, UniProt P10632); conditions: human hepatic microsomes; cited from earlier work
T1 sequence (P10632 1-490): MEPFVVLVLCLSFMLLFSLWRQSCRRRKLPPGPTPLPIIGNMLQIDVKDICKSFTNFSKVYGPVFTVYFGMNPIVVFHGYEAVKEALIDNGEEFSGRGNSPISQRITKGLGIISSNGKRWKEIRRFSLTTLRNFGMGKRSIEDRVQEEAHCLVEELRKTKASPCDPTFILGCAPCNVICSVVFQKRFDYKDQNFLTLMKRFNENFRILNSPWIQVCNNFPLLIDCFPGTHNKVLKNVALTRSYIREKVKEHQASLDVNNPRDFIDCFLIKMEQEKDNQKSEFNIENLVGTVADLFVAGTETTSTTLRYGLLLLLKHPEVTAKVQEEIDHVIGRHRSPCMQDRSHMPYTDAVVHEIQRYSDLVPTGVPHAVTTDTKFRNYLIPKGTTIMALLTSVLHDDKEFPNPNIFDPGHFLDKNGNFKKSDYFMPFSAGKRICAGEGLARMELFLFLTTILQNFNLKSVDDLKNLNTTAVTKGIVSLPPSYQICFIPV

CYP2C9 = conditions: human hepatic microsomes; cited from earlier work
[3] = cited from earlier work; remark: listed apart in the source
[4] = type: in vivo, human; conditions: for t max: median [range]; for AUCτ: one 24-h dosing interval at steady state, 14 patients, enzalutamide 160 mg once daily for 49 days
CYP3A4 [5] = assay: Clinical effect of enzalutamide on CYP3A4; conditions: enzalutamide 160 mg once daily; oral midazolam
[6] = type: in vivo, human
CYP3A4 [7] = conditions: human primary hepatocyte cultures; cited from earlier work
[8] = Population pharmacokinetic modeling and simulation; set-up: species or system human; conditions: with gemfibrozil vs enzalutamide alone
[9] = cited from earlier work; remark: listed apart in the source
[10] = patients with mCRPC; cited from earlier work
[11] = arm 2
[12] = enzalutamide 160 mg/day vs placebo-to-match
[13] = 14 patients taking enzalutamide 160 mg once daily for 49 days, mean ± standard deviation
[14] = 14 patients taking enzalutamide 160 mg once daily for 49 days
[15] = with itraconazole vs enzalutamide alone, observed data
[16] = with itraconazole vs enzalutamide alone

Compound: OCc1ncc2n1-c1ccc(Cl)cc1C(c1ccccc1F)=NC2 [1-Hydroxy-midalozam, 1-hydroxy-midazolam]
- decrease in AUC∞ by enzalutamide [1, 12]: 76%
- AUC∞ geometric mean ratio test/reference (90 % CI) [1]: 0.24 (0.20–0.28)
- C max geometric mean ratio test/reference (90 % CI) [1]: 0.29 (0.24–0.35)

Compound: COc1ccc2nc([S+]([O-])Cc3ncc(CO)c(OC)c3C)[nH]c2c1 (stereo not drawn) [5-Hydroxy-omeprazole]
- decrease in AUC∞ by enzalutamide [1, 12]: 54%
- AUC∞ geometric mean ratio test/reference (90 % CI) [1]: 0.46 (0.39–0.53)
- C max geometric mean ratio test/reference (90 % CI) [1]: 0.64 (0.50–0.83)

Compound: CC(=O)C[C@@H](c1ccccc1)c1c(O)c2ccc(O)cc2oc1=O [7-Hydroxy-S-warfarin]
- decrease in AUC∞ by enzalutamide [1, 12]: 53%
- AUC∞ geometric mean ratio test/reference (90 % CI) [1]: 0.47 (0.35–0.63)
- C max geometric mean ratio test/reference (90 % CI) [1]: 0.83 (0.71–0.99)

Compound: CC1(C)C(=O)N(c2ccc(C#N)c(C(F)(F)F)c2)C(=S)N1c1ccc(C(=O)O)c(F)c1 [Carboxylic acid metabolite]
- inhibition of CYP2B6 (CYP2B6): lesser inhibitory effects
- plasma concentrations lower than enzalutamide ([2]; circulating concentrations): approximately 25%
- inhibition of CYP2C19 (CYP2C19): may act as inhibitors
- inhibition of CYP2C8 (CYP2C8): may act as inhibitors
- inhibition of CYP2C9 (CYP2C9): lesser inhibitory effects
- pharmacological activity (primary and secondary pharmacodynamics) [3]: pharmacologically inactive
- C max [4, 13]: 8860 ± 6520 ng/mL
- C trough [4, 13]: 6320 ± 5190 ng/mL
- t max [4, 14]: 3.5 [0.0–24.0] h
- AUCτ ([4]; mean ± standard deviation): 193 ± 144 µg·h/mL

Compound: CNC(=O)c1ccc(N2C(=S)N(c3ccc(C#N)c(C(F)(F)F)c3)C(=O)C2(C)C)cc1F [Enzalutamide, enzalutamide, reference compound]
- inhibition of CYP2B6 (CYP2B6): lesser inhibitory effects
- CYP3A4 induction classification (CYP3A4 [5]): strong inducer
- increase in AUC∞ [6, 15]: 1.41 fold
- induction of CYP3A4 messenger RNA and enzymatic activity (CYP3A4 [7]): may cause increases in messenger RNA and enzymatic activity for CYP3A4
- inhibition of CYP2C19 (CYP2C19): may act as inhibitors
- inhibition of CYP2C8 (CYP2C8): may act as inhibitors
- inhibition of CYP2C9 (CYP2C9): lesser inhibitory effects
- increase in AUC∞ [8]: 4.26 fold
- C trough [4, 13]: 12000 ± 3510 ng/mL
- CL/F [4, 13]: 0.52 ± 0.09 L/h
- concentration at 49 d ([4]; human, plasma, oral, 160 mg once daily): 12000 ng/mL
- Cmax ([4]; human, plasma, oral, 160 mg, C max, 14 patients taking enzalutamide 160 mg once daily for 49 days, mean ± standard deviation): ~17000 ng/mL
- aqueous solubility [9]: ≤ 2.0 µg/mL
- maximum tolerated dose [10]: 240 mg/day

Compound: CC(O)c1ccc(CCOc2ccc(CC3SC(=O)NC3=O)cc2)nc1 (stereo not drawn) [Hydroxy-pioglitazone (M-IV), Hydroxy-pioglitazone]
- decrease in AUC∞ by enzalutamide [1, 12]: 37%
- AUC∞ geometric mean ratio test/reference (90 % CI) [1]: 0.63 (0.52–0.77)
- C max geometric mean ratio test/reference (90 % CI) [1]: 0.60 (0.52–0.70)

Compound: CC1(C)C(=O)N(c2ccc(C#N)c(C(F)(F)F)c2)C(=S)N1c1ccc(C(N)=O)c(F)c1 [N-desmethyl enzalutamide]
- inhibition of CYP2B6 (CYP2B6): lesser inhibitory effects
- circulating plasma concentrations relative to enzalutamide [2]: approximately the same plasma concentrations as enzalutamide
- decrease in Cmax ([6]; with gemfibrozil vs enzalutamide alone): 44%
- decrease in AUC18 d ([6]; with gemfibrozil vs enzalutamide alone, observed data): 67%
- decrease in AUC18 d [6, 16]: 4%
- decrease in Cmax [6, 16]: 14%
- increase in AUC∞ [6, 15]: 1.21 fold
- inhibition of CYP2C19 (CYP2C19): may act as inhibitors
- inhibition of CYP2C8 (CYP2C8): may act as inhibitors
- inhibition of CYP2C9 (CYP2C9): lesser inhibitory effects
- decrease in AUC∞ [8]: 25%
- C max [4, 13]: 12700 ± 3770 ng/mL
- C trough [4, 13]: 10600 ng/mL and 10600 ± 3270 ng/mL
- t max [4, 14]: 4.0 [0.0–24.0] h
- AUCτ ([4]; mean ± standard deviation): 278 ± 85.5 µg·h/mL

Compound: CC(=O)C[C@H](c1ccccc1)c1c(O)c2ccccc2oc1=O [R-warfarin, reference compound]
- decrease in AUC∞ by enzalutamide [1, 12]: 45%

Compound: CC(=O)C[C@@H](c1ccccc1)c1c(O)c2ccccc2oc1=O [S-warfarin, reference compound]
- decrease in AUC∞ by enzalutamide [1, 12]: 56%

Compound: Cc1ccc(C)c(OCCCC(C)(C)C(=O)O)c1 [gemfibrozil]
- adverse event above NCI-CTCAE grade 1 with possible relationship [11]: grade 2 flatulence in one subject

Compound: Cc1ncc2n1-c1ccc(Cl)cc1C(c1ccccc1F)=NC2 [midazolam, reference compound]
- decrease in AUC∞ by enzalutamide [1, 12]: 86%
- AUC∞ geometric mean ratio test/reference (90 % CI) [1]: 0.14 (0.12–0.17)
- C max geometric mean ratio test/reference (90 % CI) [1]: 0.23 (0.20–0.27)

Compound: COc1ccc2[nH]c([S+]([O-])Cc3ncc(C)c(OC)c3C)nc2c1 (stereo not drawn) [omeprazole, reference compound]
- decrease in AUC∞ by enzalutamide [1, 12]: 70%
- AUC∞ geometric mean ratio test/reference (90 % CI) [1]: 0.30 (0.24–0.36)
- C max geometric mean ratio test/reference (90 % CI) [1]: 0.38 (0.26–0.54)

Compound: CCc1ccc(CCOc2ccc(CC3SC(=O)NC3=O)cc2)nc1 (stereo not drawn) [pioglitazone, reference compound]
- increase in AUC∞ by enzalutamide [1, 12]: 20%
- AUC∞ geometric mean ratio test/reference (90 % CI) [1]: 1.20 (0.98–1.47)
- C max geometric mean ratio test/reference (90 % CI) [1]: 0.82 (0.67–1.01)
